For test [1], the system named is Tomato Early Blight organism, Alternaria solani. As to the kind of experiment: Fungicidal efficacy, control of Tomato Early Blight on sprayed tomato seedlings. It is filed as in vivo. The settings on record: for Fungicidal Efficacy - % Control, TEB (Tomato Early Blight): 250 ppm spray, about 12 days; for fungicidal activity on Tomato Early Blight (in words): Table I test.

The test system of test [2] is Powdery mildew pathogen, Erysiphe polygoni. As to the kind of experiment: Fungicidal efficacy, control of Bean Powdery Mildew on sprayed bean seedlings. The format is in vivo. The settings on record: for Fungicidal Efficacy - % Control, BPM (Bean Powdery Mildew): 250 ppm spray, inoculated one day later, about 10 days; for fungicidal activity on Bean Powdery Mildew (in words): Table I test. An excerpt: The powdery mildew test was made using bean seedlings (variety Bountiful) with well-developed primary leaves. The pathogen was Erysiphe polygoni. […] The treated plants were inoculated one day after spray application of the test compound with the pathogen. […] The rate of infection on the leaves was made after about 10 days. The percent disease control provided by a given test compound was based on the disease reduction relative to untreated check plants. The results are reported in Table I. The test was repeated on Compound No. 1.

The test system of another test is fungi. As to the kind of experiment: Fungicidal activity overall (tests of Examples 1 and 2, Table I). It is filed as in vivo.
The next test concerns malaria. The note with it: disclosed by Burkhalter et al, 1948; cited from earlier work.
Test [3] concerns Tomato Late Blight, Phytophthora infestans. The format is in vivo. The settings on record: 250 ppm spray; inoculated one day later; about 12 days.

For `CCCN(CCC)Cc1cccc([N+](=O)[O-])c1` [Compound 1, N,N-Dipropyl-3-Nitro-Benzylamine], the “% control, Tomato Early Blight (repeat test)” value in test [1] (16 ppm) worked out at 90%; in test [1] (40 ppm) it was 90%; in test [1] (100 ppm), 93%. Also, the “Fungicidal Efficacy - % Control, TEB (Tomato Early Blight)” value (from here on “Fungicidal Efficacy - % Control, TEB”) in test [1] was determined as 60%. The “fungicidal activity on Tomato Early Blight (in words)” value in test [1] was “unexpected fungicidal activity”. For the same compound, the “% control, powdery mildew (repeat test)” value came to 0% in test [2] (16 ppm), 56% in test [2] (40 ppm) and 83% in test [2] (100 ppm). Besides, the “Fungicidal Efficacy - % Control, BPM (Bean Powdery Mildew)” value (shortened to “Fungicidal Efficacy - % Control, BPM”) in test [2] turned out to be 86%. Moreover, the “fungicidal activity on Bean Powdery Mildew (in words)” value in test [2] is reported as “unexpected fungicidal activity”. Besides, the “fungicidal activity (in words)” value in the test on fungi is listed as “unexpected fungicidal activity”.
As to `CCN(CC)Cc1cccc([N+](=O)[O-])c1` [Compound 2, N,N-diethyl-3-nitro-benzylamine, reference compound], in test [1], the “Fungicidal Efficacy - % Control, TEB” value was found to be 0% and the “fungicidal activity on Tomato Early Blight (in words)” value was “no fungicidal activity”. For the same compound, in test [2], the “Fungicidal Efficacy - % Control, BPM” value is on record as 0% and the “fungicidal activity on Bean Powdery Mildew (in words)” value was “no fungicidal activity”. In the test on malaria, the “antimalarial activity (in words)” value is on record as “antimalarial activity”.
As to `CCCN(CCC)Cc1ccc([N+](=O)[O-])cc1` [Compound 3, N,N-dipropyl-4-nitro-benzylamine, reference compound], in test [1], the “Fungicidal Efficacy - % Control, TEB” value came to 0%. Besides, the “Fungicidal Efficacy - % Control, BPM” value in test [2] amounted to 0%. Besides, in the test on malaria, the “antimalarial activity (in words)” value was “antimalarial activity”. Further, the “fungicidal activity (in words)” value in the test with fungi is reported as “no fungicidal activity”.
As to `CCCN(CCC)Cc1cccc(F)c1` [Compound 4, reference compound], in test [1], the “Fungicidal Efficacy - % Control, TEB” value was determined as 0%. In addition, the “Fungicidal Efficacy - % Control, BPM” value in test [2] came out at 0%. Further, in the test on fungi, the “fungicidal activity (in words)” value is given as “no fungicidal activity”.
With `CSc1cccc(NCc2cccc([N+](=O)[O-])c2)c1` [Compound 5, N-(3'-methylthiophenyl)-3-nitro-benzylamine], the “Fungicidal Efficacy - % Control, BPM” value in test [2] is 79%. Moreover, the “fungicidal activity (in words)” value with fungi is on record as “activity comparable to that of Compound 1”.
With `CSc1cccc(N(Cc2cccc([N+](=O)[O-])c2)S(C)(=O)=O)c1` [Compound 6, N-(3-nitrobenzyl)-N-(3'-methylthiophenyl)-methane sulfonamide], in test [1], the “Fungicidal Efficacy - % Control, TEB” value is on record as 81%. Besides, the “fungicidal activity (in words)” value in the test on fungi is recorded as “activity comparable to that of Compound 1”. Further, the “Fungicidal Efficacy - % Control, TLB (Tomato Late Blight)” value in test [3] is listed as 75%.
Turning to `CS(=O)(=O)c1cccc(NCc2cccc([N+](=O)[O-])c2)c1` [Compound 7], in the test with fungi, the “fungicidal activity (in words)” value is recorded as “activity comparable to that of Compound 1”. In test [3], the “Fungicidal Efficacy - % Control, TLB (Tomato Late Blight)” value is given as 75%.
Take `CCN(CC)Cc1ccc([N+](=O)[O-])cc1` [N,N-diethyl-4-nitro-benzylamine]: the “antimalarial activity (in words)” value in the test with malaria is recorded as “antimalarial activity”.

These data come from patent publication US4339461A, “N-Substituted 3-nitro-benzylamines” (Chevron Research Company, priority 1980, dated 1982).
